This note sets out measurements from patent US4604383A, “Pyrrolidin-2-ones and medicaments containing them” (Societe Anonyme Styled: SANOFI, priority 1983, dated 1986).

Data set [1] is described as follows: Antagonism to the convulsions caused by 3-mercaptopropionic acid. Type of data set: in vivo, mouse (CD Charles Rivers mice). The following applies: mouse, oral, 60 min before 3-mercaptopropionic acid 60 mg/kg s.c.; probit method, confidence limits in parentheses, p <= 0.05; read-out: Median effective dose (ED50) of antagonism to convulsions caused by 3-mercaptopropionic acid. The procedure:
(§1) The anticonvulsant effect of the products in the mouse was evaluated on a model of convulsions caused by electric shock, and on 2 models of convulsions induced by chemical agents: bicuculline and 3-mercaptopropionic acid.
(§2) The batches were constituted by 10 CD Charles Rivers mice of weights comprised between 20 and 22 g. The products were administered orally 60 minutes before the 3-mercaptopropionic acid (60 mg/kg s.c.).

Data set [2] is described as follows: Antagonism of the convulsions induced by electric shock. Type of data set: in vivo, mouse (CD1 Charles Rivers mice). The note with it: mouse; for ED50: oral, 60 min before electroshock, probit method, confidence limits in parentheses, p <= 0.05, read-out: Median effective dose (ED50) of electric shock antagonism. On the procedure:
as §1
(§3) The test was slightly modified from that of Swinyard et al., J. Pharm. Exp. Ther., 1952, 106, 319-330 and Asami et al. Arzneim. Forsch., 1974, 24 (1), 1563-1568. The equipment was composed of a Racia shock generator provided with two occular electrodes delivering a current of 60 volts for 0.3 seconds. The batches were constituted by 10 CD1 Charles Rivers mice of weight comprised between 20 and 24 g. The products were administered orally, 60 minutes before the electroshock.

Data set [3] in a line: Effect on spontaneous motility (Boissier and Simon activity test, actimetric cages). In kind it is in vivo, mouse (CD1 Charles Rivers female mice). The note with it: mouse; for Locomotor activity, score percent/controls: 100 mg/kg p.os., 45 min after administration, 10 min recording, * P <= 0.05, ** P <= 0.01; for Effect on spontaneous motility (in words): oral dose of 100 mg/kg. On the procedure: The spontaneous motility of the animals was measured by means of the activity test developed by Boissier and Simon, Arch. Int. Pharmacocyn., 1965, 158, 212-221. The equipment is composed of actimetric cages, type Apelab (26×21.5×10 cm), traversed by two light rays which fall on a photoelectric cell. The batches were constituted by CD1 Charles Rivers female mice, of weight comprised between 20 and 24 g. The animals were placed individually in cages 45 minutes after oral administration of the products at the dose of 100 mg/kg. Each traversal by a light beam was counted by an individual counter. The scores corresponding to the movements of the animals were recorded for 10 minutes, and compared with the scores taken on batches of control animals, treated only with the vehicle (5% gum arabic).

Data set [4] can be described thus: Acute toxicity, determination of the lethal dose in the mouse. The note with it: in vivo, po, read-out: Percent toxicity (animals which die in 72 hours). The procedure: The toxicity of the products according to the invention was studied: the products were administered orally, to batches of 5 CD Charles Rivers female mice, of weights comprised between 20 and 24 g. The toxicity was noted during the 72 hours which followed the administration of the products.
The results expressed as a percentage of animals which die in the 72 hours following the oral administration of the products, are noted in the preceding table.

Data set [5] in a line: Potentiation of narcosis with pentobarbital (loss of righting reflex). Type of data set: in vivo, mouse (CD1 Charles Rivers mice). The note with it: mouse; for Potentiation of pentobarbital, percent of animals in narcosis: products at 100 mg/kg p.os., 60 min before pentobarbital 20 mg/kg i.p. On the procedure: For the purpose of evaluating the hypnogenic power of the products, their capacity to potentiate the effects of a subnarcotic dose of pentabarbital in the mouse was studied. The batches were constituted by 10 CD1 Charles Rivers mice, of weight comprised between 20 and 24 g.
The pentobarbital (20 mg/kg, i.p.) was administered 60 minutes after administration of the products. The drowsiness criterion taken was the loss of the righting reflex.

Data set [6] is described as follows: Antagonism of convulsions and of mortality caused by bicucullin. Type of data set: in vivo, mouse (CD Charles Rivers mice). The following applies: mouse. The procedure: as §1
(§4) The batches were constituted by 10 CD Charles Rivers mice of weights comprised between 20 and 22 g. The products were administered orally, 60 minutes before the bicucullin (0.8 mg/kg, i.v.).

The nature of data set [7]: Evaluation of the anticonvulsant activity (electric shock, bicucullin and 3-mercaptopropionic acid taken together). In kind it is in vivo. The following applies: mouse, oral. The procedure:
as §1, §3, §4, §2

Like-named read-outs stand apart in the source and are kept apart here. Bounds are passed on as bounds.

Turning to `CC1CC(Cc2ccccc2F)NC1=O` (centres unmarked) [SR 41881], the ED50 (commonly the dose at which the effect has come halfway, by size or by number of responders) was found to be 46 mg/kg in data set [1] and 92 mg/kg in data set [2]. In addition, the “Locomotor activity, score percent/controls” value in data set [3] is “+41%”. Also, the “Effect on spontaneous motility (in words)” value in data set [3] is on record as “stimulating effects of the motor activity”. Besides, the results for the mortality at 72 h in data set [4] (250 mg/kg p.os.), in data set [4] (500 mg/kg p.os.) and in data set [4] (1000 mg/kg p.os.) were 0%, 0% and 100%, respectively. Besides, the “Potentiation of pentobarbital, percent of animals in narcosis” value in data set [5] is reported as 30%.

On to `O=C1CCC(Cc2ccccc2)N1` (centres unmarked) [Compound A, 5-phenylmethyl 2-pyrrolidinone, reference compound], for which the ED50 in data set [1] was > 100 mg/kg. The “Antagonism to bicucullin mortality” value in data set [6] (at 200 (mg/kg p.o.)) was 30%. Besides, the “Median effective dose (ED50) of the antagonism to the effects of bicucullin: Tonic convulsions” value in data set [6] (oral, 60 min before bicucullin 0.8 mg/kg i.v., probit method, confidence limits in parentheses, p < 0.05) is “inactive at 200”. In data set [7], the “Anticonvulsant properties (in words)” value was “does not show anticonvulsant properties”. The “Inhibition of electric shock convulsions” value in data set [2] (at 200 mg/kg p.os.) was 40%. The “Locomotor activity, score percent/controls” value in data set [3] was “+1.2%”. Besides, in data set [3], the “Effect on spontaneous motility (in words)” value was “does not act on the spontaneous motility”. Also, the mortality at 72 h in data set [4] (250 mg/kg p.os.) turned out to be 0%; in data set [4] (500 mg/kg p.os.), 0%; in data set [4] (1000 mg/kg p.os.), 60%. Moreover, in data set [5] (oral), the “Hypnogenic effect / potentiation of narcosis with pentobarbital (in words)” value is reported as “devoid of hyponogenic effect”. The “Potentiation of pentobarbital, percent of animals in narcosis” value in data set [5] is 0%.

In the case of `CC1(C)CC(Cc2ccccc2F)NC1=O` (centres unmarked) [SR 41680], the ED50 is 54 mg/kg in data set [1] and 51 mg/kg in data set [2]. The “Locomotor activity, score percent/controls” value in data set [3] is “+99%”. Besides, the “Effect on spontaneous motility (in words)” value in data set [3] was “stimulating effects of the motor activity”. The mortality at 72 h in data set [4] (250 mg/kg p.os.) and in data set [4] (500 mg/kg p.os.) was 0% each time.

In the case of `CC1CC(Cc2ccccc2Cl)NC1=O` (centres unmarked) [SR 41678], the 50% effective dose (ED50) in data set [1] turned out to be 53 mg/kg; in data set [6] (oral, 60 min before bicucullin 0.8 mg/kg i.v., probit method, confidence limits in parentheses, p < 0.05, read-out: Median effective dose (ED50) of the antagonism to the effects of bicucullin: Tonic convulsions), 76 mg/kg; in data set [2] it was 44 mg/kg. Moreover, in data set [3], the “Locomotor activity, score percent/controls” value is listed as “+45%”. The “Effect on spontaneous motility (in words)” value in data set [3] is given as “stimulating effects of the motor activity”. The mortality at 72 h in data set [4] (250 mg/kg p.os.) came to 0%; in data set [4] (500 mg/kg p.os.), 0%; in data set [4] (1000 mg/kg p.os.), 60%. Further, the “Potentiation of pentobarbital, percent of animals in narcosis” value in data set [5] is 30%.
